The source of these data is patent US20250289813A1, “CDK INHIBITORS, PHARMACEUTICAL COMPOSITIONS, AND THERAPEUTIC APPLICATIONS” (ONQUALITY PHARMACEUTICALS CHINA LTD., priority 2022, published 2025).

The structures appear in SMILES notation. Where only a bound is given, the exact number is not on record here.

Experiment [1] concerns MCF-7 human breast cancer cells. The experiment is described as follows: CELLTITER-GLO luminescent cell viability assay. The experiment is classed as cell-based. The settings on record: MCF7, 192 h, MCF-7 cells, 8 days, read-out: EC50 (Effect on Cell Viability). How it is done:
A CELLTITER-GLO luminescent cell viability assay was carried out using MCF-7 human breast cancer cells under the normal growth condition. The MCF-7 human breast cancer cells were grown at 37° C. in a 5% CO2 humidified incubator in EMEM, supplemented 10% FBS, 0.01 mg/mL bovine insulin. The cells were seeded at a 3,000 cells/well in a 96-well tissue culture plate. The cells were allowed to adhere overnight in the incubator. A compound (5 μL) in a medium at a predetermined concentration. After the cells was incubated at 37° C. for 8 days, a CELLTITER-GLO detection solution (100 μL) was added. The cells were mixed on an orbital shaker for 5 min and then incubated for additional 10 min. The plate was read with an ENVISION reader. The results are summarized in Table 2, where the symbol “+++” represents a value no greater than 1 μM, the symbol “++” represents a value greater than 1 μM but no greater than 10 μM, and the symbol “+” represents a value greater than 10 μM.
On the technique in general: Cellular ATP, detected with luciferase, serves as a proxy for viable cell number.

In experiment [2] the target is CDK6/cyclin D1 (Homo sapiens (Human), UniProt Q00534). In words: CDK6 Caliper Mobility Shift assay. The experiment is classed as biochemical. As for the experimental part:
(§1) A Caliper Mobility Shift assay was used to determine the inhibitory activities of a compound against CDK4/cyclin D1 and CDK6/cyclin D1 in their respective kinase buffers (CDK4: 20 mM HEPES, pH 7.5, and 0.01% Triton X-100; CDK6: 50 mM HEPES, pH 7.5, and 0.0015% BRIJ-35). The CDK4/cyclin D1 and CDK6/cyclin D1 were obtained from PROQINASE and CARNA, respectively. A FAM-labeled peptide was obtained from GL.
(§2) The compound at predetermined concentrations was pre-incubated with CDK4/cyclin D1 or CDK6/cyclin D1 in a 384-well microplate at room temperature for 10 min. The FAM-labeled peptide and ATP were subsequently added to initiate the kinase reactions. The final enzyme concentrations were 15 nM for CDK4 and 7.5 nM for CDK6. The final ATP concentrations were […] for CDK4 and […] for CDK6. The microplate was allowed to incubate at 28° C. The kinase reactions were stopped by adding a stop buffer (100 mM HEPES, pH 7.5, 0.012% BRIJ-35, 0.2% Coating Reagent 3 (Caliper Life Sciences), and […]). Conversion data were recorded and utilized to calculate the percent inhibition values for each compound and an IC50 value was then determined. The results are summarized in Table 1, where the symbol “***” represents a value no greater than 200 nM, the symbol “**” represents a value greater than 200 nM but no greater than 500 nM, and the symbol “*” represents a value greater than 500 nM.

In experiment [3] the target is CDK4/cyclin D1 (Homo sapiens (Human), UniProt P11802). The experiment is described as follows: CDK4 Caliper Mobility Shift assay. The experiment is classed as biochemical. As for the experimental part:
as §1, §2

CDK4/cyclin D1, sequence (P11802 whole entry): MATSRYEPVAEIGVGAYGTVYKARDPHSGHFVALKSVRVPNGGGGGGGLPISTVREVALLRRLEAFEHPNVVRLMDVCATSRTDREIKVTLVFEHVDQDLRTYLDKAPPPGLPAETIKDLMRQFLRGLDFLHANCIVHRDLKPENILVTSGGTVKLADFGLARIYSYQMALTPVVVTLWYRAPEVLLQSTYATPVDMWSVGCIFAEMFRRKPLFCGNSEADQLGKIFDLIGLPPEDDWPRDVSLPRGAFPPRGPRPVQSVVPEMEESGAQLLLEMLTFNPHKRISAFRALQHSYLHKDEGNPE
CDK4/cyclin D1, sequence (P24385 whole entry partner): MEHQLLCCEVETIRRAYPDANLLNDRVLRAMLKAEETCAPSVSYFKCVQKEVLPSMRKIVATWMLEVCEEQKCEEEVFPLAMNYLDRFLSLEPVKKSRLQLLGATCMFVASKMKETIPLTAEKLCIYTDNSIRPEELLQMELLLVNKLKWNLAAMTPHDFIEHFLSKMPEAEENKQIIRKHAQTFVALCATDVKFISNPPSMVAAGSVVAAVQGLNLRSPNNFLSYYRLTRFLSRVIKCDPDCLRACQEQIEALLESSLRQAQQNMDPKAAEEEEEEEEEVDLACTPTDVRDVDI
CDK6/cyclin D1, sequence (Q00534 whole entry): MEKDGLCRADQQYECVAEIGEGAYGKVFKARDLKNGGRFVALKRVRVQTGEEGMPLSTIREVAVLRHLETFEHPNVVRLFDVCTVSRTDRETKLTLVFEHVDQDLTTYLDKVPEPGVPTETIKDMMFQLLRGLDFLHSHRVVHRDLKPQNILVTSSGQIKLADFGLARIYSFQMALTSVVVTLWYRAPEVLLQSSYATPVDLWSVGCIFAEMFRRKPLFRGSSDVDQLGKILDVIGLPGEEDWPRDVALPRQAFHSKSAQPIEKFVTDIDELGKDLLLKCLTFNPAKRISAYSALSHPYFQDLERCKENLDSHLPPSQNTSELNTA
CDK6/cyclin D1, sequence (P24385 whole entry partner): as the sequence (P24385 whole entry partner) above

What is called EC50 is the concentration needed to bring the measured effect to its halfway point. As usually defined, the IC50 is the concentration that inhibits the measured activity by half. Regarding `CC(=O)c1c(C)c2cnc(Nc3ccc(N4CCN(S(=O)(=O)NC(=O)OC(C)(C)C)CC4)cn3)nc2n(C2CCCC2)c1=O` [Compound A4, tert-butyl ((4-(6-((6-acetyl-8-cyclopentyl-5-methyl-7-oxo-7,8-dihydropyrido[2,3-d]pyrimidin-2-yl)amino)pyridin-3-yl)piperazin-1-yl)sulfonyl)carbamate], the EC50 in experiment [1] is over 10000 nM. The half-maximal inhibitory concentration (IC50) in experiment [2] and in experiment [3] was at most 200 nM throughout.
Consider `CC(=O)c1c(C)c2cnc(Nc3ccc(N4CCN(S(=O)(=O)N5CCCC[C@@H]5CO)CC4)cn3)nc2n(C2CCCC2)c1=O` [Compound A7, (R)-6-acetyl-8-cyclopentyl-2-((5-(4-((2-(hydroxymethyl)piperidin-1-yl)sulfonyl)-piperazin-1-yl)pyridin-2-yl)amino)-5-methylpyrido[2,3-d]pyrimidin-7(8H)-one], for which the EC50 in experiment [1] lay in the range of 1000 to 10000 nM. Moreover, the IC50 in experiment [2] and in experiment [3] was at most 200 nM throughout.
On to `COCCOC(=O)NS(=O)(=O)N1CCN(c2ccc(Nc3ncc4c(C)c(C(C)=O)c(=O)n(C5CCCC5)c4n3)nc2)CC1` [Compound A8, 2-Methoxyethyl ((4-(6-((6-acetyl-8-cyclopentyl-5-methyl-7-oxo-7,8-dihydropyrido[2,3-d]pyrimidin-2-yl)amino)pyridin-3-yl)piperazin-1-yl)sulfonyl)carbamate], for which the EC50 in experiment [1] was over 10000 nM. The values for the IC50 in experiment [2] and in experiment [3] were at most 200 nM and 200 to 500 nM, respectively.
For `CC(=O)OCCOC(=O)NS(=O)(=O)N1CCN(c2ccc(Nc3ncc4c(C)c(C(C)=O)c(=O)n(C5CCCC5)c4n3)nc2)CC1` [Compound A9, 2-((((4-(6-((6-Acetyl-8-cyclopentyl-5-methyl-7-oxo-7,8-dihydropyrido[2,3-d]-pyrimidin-2-yl)amino)pyridin-3-yl)piperazin-1-yl)sulfonyl)carbamoyl)oxy)ethyl acetate], the EC50 in experiment [1] lay within 1000 to 10000 nM. Besides, the IC50 in experiment [2] and in experiment [3] was at most 200 nM throughout.
In the case of `CC(=O)c1c(C)c2cnc(Nc3ccc(N4CCN(S(=O)(=O)NC(=O)OCCNC(=O)[C@@H](N)C(C)C)CC4)cn3)nc2n(C2CCCC2)c1=O` [Compound A14, (S)-2-(2-Amino-3-methylbutanamido)ethyl ((4-(6-((6-acetyl-8-cyclopentyl-5-methyl-7-oxo-7,8-dihydropyrido[2,3-d]pyrimidin-2-yl)amino)pyridin-3-yl)piperazin-1-yl)sulfonyl)carbamate], the EC50 in experiment [1] was over 10000 nM. Moreover, the IC50 in experiment [2] and in experiment [3] was at most 200 nM each time.
In the case of `CC(=O)c1c(C)c2cnc(Nc3ccc(N4CCN(S(=O)(=O)NC(=O)OCCNC(=O)[C@@H](N)CO)CC4)cn3)nc2n(C2CCCC2)c1=O` [Compound A18, (S)-2-(2-Amino-3-hydroxypropanamido)ethyl ((4-(6-((6-acetyl-8-cyclopentyl-5-methyl-7-oxo-7,8-dihydropyrido[2,3-d]pyrimidin-2-yl)amino)pyridin-3-yl)piperazin-1-yl)-sulfonyl)carbamate], in experiment [1], the EC50 is over 10000 nM. Also, the IC50 in experiment [2] and in experiment [3] was at most 200 nM in each case.
Regarding `CSCC[C@H](N)C(=O)NCCOC(=O)NS(=O)(=O)N1CCN(c2ccc(Nc3ncc4c(C)c(C(C)=O)c(=O)n(C5CCCC5)c4n3)nc2)CC1` [Compound A19, (S)-2-(2-Amino-4-(methylthio)butanamido)ethyl ((4-(6-((6-acetyl-8-cyclopentyl-5-methyl-7-oxo-7,8-dihydropyrido[2,3-d]pyrimidin-2-yl)amino)pyridin-3-yl)piperazin-1-yl)-sulfonyl)carbamate], in experiment [1], the concentration giving a half-maximal response (EC50) is over 10000 nM. Besides, the IC50 in experiment [2] and in experiment [3] was at most 200 nM in each case.
For `CC(=O)c1c(C)c2cnc(Nc3ccc(N4CCN(S(=O)(=O)NC(=O)OC5CCC5)CC4)cn3)nc2n(C2CCCC2)c1=O` [Compound A23, Cyclobutyl ((4-(6-((6-acetyl-8-cyclopentyl-5-methyl-7-oxo-7,8-dihydropyrido[2,3-d]pyrimidin-2-yl)amino)pyridin-3-yl)piperazin-1-yl)sulfonyl)carbamate], the EC50 in experiment [1] was 1000 to 10000 nM. Further, the IC50 was at most 200 nM in experiment [2] and over 500 nM in experiment [3].
With `CC(=O)c1c(C)c2cnc(Nc3ccc(N4CCN(S(=O)(=O)NC(=O)OC5CC5)CC4)cn3)nc2n(C2CCCC2)c1=O` [Compound A24, Cyclopropyl ((4-(6-((6-acetyl-8-cyclopentyl-5-methyl-7-oxo-7,8-dihydropyrido[2,3-d]pyrimidin-2-yl)amino)pyridin-3-yl)piperazin-1-yl)sulfonyl)carbamate], in experiment [1], the EC50 was 1000 to 10000 nM. Also, the half-maximal inhibitory concentration (IC50) in experiment [2] and in experiment [3] was at most 200 nM throughout.
With `CCOC(=O)NS(=O)(=O)N1CCN(c2ccc(Nc3ncc4c(C)c(C(C)=O)c(=O)n(C5CCCC5)c4n3)nc2)CC1` [Compound A25, Ethyl ((4-(6-((6-acetyl-8-cyclopentyl-5-methyl-7-oxo-7,8-dihydropyrido[2,3-d]-pyrimidin-2-yl)amino)pyridin-3-yl)piperazin-1-yl)sulfonyl)carbamate], in experiment [1], the EC50 is 1000 to 10000 nM. In addition, the IC50 in experiment [2] was at most 200 nM; in experiment [3], 200 to 500 nM.
Consider `COC(=O)NS(=O)(=O)N1CCN(c2ccc(Nc3ncc4c(C)c(C(C)=O)c(=O)n(C5CCCC5)c4n3)nc2)CC1` [Compound A26, Methyl ((4-(6-((6-acetyl-8-cyclopentyl-5-methyl-7-oxo-7,8-dihydropyrido[2,3-d]-pyrimidin-2-yl)amino)pyridin-3-yl)piperazin-1-yl)sulfonyl)carbamate], for which, in experiment [1], the EC50 was 1000 to 10000 nM. For the same compound, the IC50 in experiment [2] and in experiment [3] was at most 200 nM throughout.
Turning to `CC(=O)c1c(C)c2cnc(Nc3ccc(N4CCN(S(=O)(=O)NC(=O)OC(C)C)CC4)cn3)nc2n(C2CCCC2)c1=O` [Compound A27, Isopropyl ((4-(6-((6-acetyl-8-cyclopentyl-5-methyl-7-oxo-7,8-dihydropyrido[2,3-d]pyrimidin-2-yl)amino)pyridin-3-yl)piperazin-1-yl)sulfonyl)carbamate], the EC50 in experiment [1] lay within 1000 to 10000 nM. The IC50 was 200 to 500 nM in experiment [2] and at most 200 nM in experiment [3].
In the case of `CC(=O)c1c(C)c2cnc(Nc3ccc(N4CCN(S(=O)(=O)NC(=O)C(N)C(C)C)CC4)cn3)nc2n(C2CCCC2)c1=O` (stereo not drawn) [Compound A30, N-((4-(6-((6-Acetyl-8-cyclopentyl-5-methyl-7-oxo-7,8-dihydropyrido[2,3-d]-pyrimidin-2-yl)amino)pyridin-3-yl)piperazin-1-yl)sulfonyl)-2-amino-3-methylbutanamide], the EC50 in experiment [1] is at most 1000 nM. Also, the IC50 in experiment [2] and in experiment [3] was at most 200 nM in each case.
Consider `CC(=O)c1c(C)c2cnc(Nc3ccc(N4CCN(S(=O)(=O)NC(=O)[C@H]5CCCN5)CC4)cn3)nc2n(C2CCCC2)c1=O` [Compound A33, (R)—N-((4-(6-((6-Acetyl-8-cyclopentyl-5-methyl-7-oxo-7,8-dihydropyrido[2,3-d]-pyrimidin-2-yl)amino)pyridin-3-yl)piperazin-1-yl)sulfonyl)pyrrolidine-2-carboxamide], for which the half-maximal effective concentration (EC50) in experiment [1] was at most 1000 nM. Further, the concentration for half-maximal inhibition (IC50) in experiment [2] and in experiment [3] was at most 200 nM in each case.
`CC(=O)NS(=O)(=O)N1CCN(c2ccc(Nc3ncc4c(C)c(C(C)=O)c(=O)n(C5CCCC5)c4n3)nc2)CC1` [Compound A34, N-((4-(6-((6-Acetyl-8-cyclopentyl-5-methyl-7-oxo-7,8-dihydropyrido[2,3-d]-pyrimidin-2-yl)amino)pyridin-3-yl)piperazin-1-yl)sulfonyl)acetamide]: the EC50 in experiment [1] was over 10000 nM. In addition, the IC50 in experiment [2] and in experiment [3] was at most 200 nM in each case.
Regarding `CC(=O)c1c(C)c2cnc(Nc3ccc(N4CCN(S(=O)(=O)NC(=O)C(C)C)CC4)cn3)nc2n(C2CCCC2)c1=O` [Compound A36, N-((4-(6-((6-Acetyl-8-cyclopentyl-5-methyl-7-oxo-7,8-dihydropyrido[2,3-d]-pyrimidin-2-yl)amino)pyridin-3-yl)piperazin-1-yl)sulfonyl)isobutyramide], the EC50 in experiment [1] was 1000 to 10000 nM. Moreover, the IC50 in experiment [2] is 200 to 500 nM; in experiment [3] it was at most 200 nM.
